Test results from US11957696B2 (Propella Therapeutics, Inc., priority 2021, dated 2024).

Test system: CYP17 hydroxylase/lyase
Assay: Steroid hormone analysis (serum) in 13-week study
Assay type: in vivo, cynomolgus monkeys
Conditions: for Serum Aldosterone CFB (vs Day −1) / Serum Aldosterone Mean / Serum Androstenedione CFB (vs Day −1) / Serum Androstenedione Mean / Serum Corticosterone CFB (vs Day −1) / Serum Corticosterone Mean / Serum Cortisol CFB (vs Day −1) / Serum Cortisol Mean / Serum Dehydroepiandrosterone CFB (vs Day −1) / Serum Dehydroepiandrosterone Mean / Serum Deoxycortisol CFB (vs Day −1) / Serum Deoxycortisol Mean / Serum Dihydrotestosterone CFB (vs Day −1) / Serum Dihydrotestosterone Mean / Serum Progesterone CFB (vs Day −1) / Serum Progesterone Mean / Serum Testosterone CFB (vs Day −1) / Serum Testosterone Mean / Serum 17OH-Progesterone CFB (vs Day −1) / Serum 17OH-Progesterone Mean: intact male monkeys
Experimental: Sample Collection for Steroid Hormone Analysis (Serum): Blood samples (approximately 2.5 mL) were collected from all animals via the femoral vein for the steroid hormone analysis. The animals were fasted prior to blood collection.

[1] = 60 mg/kg IM every two weeks, Day 85
[2] = 200 mg/kg IM every two weeks, Day 15
[3] = 200 mg/kg IM every two weeks, Day 85
[4] = Day 85, 20 and 60 mg/kg dose groups

SMILES: CCCCCCCCCC(=O)O[C@H]1CC[C@@]2(C)C(=CC[C@@H]3[C@@H]2CC[C@]2(C)C(c4cccnc4)=CC[C@@H]32)C1 [Abiraterone Decanoate, abiraterone decanoate]
- Serum Aldosterone CFB (vs Day −1) [1]: −18%
- Serum Aldosterone Mean [1]: 194 pg/mL
- Serum Androstenedione CFB (vs Day −1) [1]: −77%
- Serum Androstenedione Mean [1]: 79 pg/mL
- Serum Corticosterone CFB (vs Day −1) [1]: 3878%
- Serum Corticosterone Mean [1]: 120598 pg/mL
- Serum Cortisol CFB (vs Day −1) [1]: −72%
- Serum Cortisol Mean [1]: 39689 pg/mL
- Serum Dehydroepiandrosterone CFB (vs Day −1) [1]: −76%
- Serum Dehydroepiandrosterone Mean [1]: 1200 pg/mL
- Serum Deoxycortisol CFB (vs Day −1) [1]: −7%
- Serum Deoxycortisol Mean [1]: 315 pg/mL
- Serum Dihydrotestosterone CFB (vs Day −1) [1]: −69%
- Serum Dihydrotestosterone Mean [1]: 361 pg/mL
- Serum Progesterone CFB (vs Day −1) [1]: 67947%
- Serum Progesterone Mean [1]: 13609 pg/mL
- Serum Testosterone CFB (vs Day −1) [1]: 1%
- Serum Testosterone Mean [1]: 5453 pg/mL
- Serum 17OH-Progesterone CFB (vs Day −1) [2]: 158%
- Serum 17OH-Progesterone Mean [2]: 474 pg/mL
- Serum Aldosterone CFB (vs Day −1) [2]: −91%
- Serum Aldosterone Mean [2]: 19 pg/mL
- Serum Androstenedione CFB (vs Day −1) [2]: −93%
- Serum Androstenedione Mean [2]: 20 pg/mL
- Serum Corticosterone CFB (vs Day −1) [2]: 4238%
- Serum Corticosterone Mean [2]: 138133 pg/mL
- Serum Cortisol CFB (vs Day −1) [2]: −93%
- Serum Cortisol Mean [2]: 7703 pg/mL
- Serum Dehydroepiandrosterone CFB (vs Day −1) [2]: −64%
- Serum Dehydroepiandrosterone Mean [2]: 1200 pg/mL
- Serum Deoxycortisol CFB (vs Day −1) [2]: −84%
- Serum Deoxycortisol Mean [2]: 44 pg/mL
- Serum Dihydrotestosterone CFB (vs Day −1) [2]: −96%
- Serum Dihydrotestosterone Mean [2]: 67 pg/mL
- Serum Progesterone CFB (vs Day −1) [2]: 59894%
- Serum Progesterone Mean [2]: 11999 pg/mL
- Serum Testosterone CFB (vs Day −1) [2]: −99%
- Serum Testosterone Mean [2]: 100 pg/mL
- Serum Testosterone CFB (vs Day −1) (200 mg/kg IM every two weeks, Day 15, listed as AbiDec): −96%
- Serum 17OH-Progesterone CFB (vs Day −1) [3]: 1696%
- Serum 17OH-Progesterone Mean [3]: 3296 pg/mL
- Serum Aldosterone CFB (vs Day −1) [3]: −82%
- Serum Aldosterone Mean [3]: 37 pg/mL
- Serum Androstenedione CFB (vs Day −1) [3]: −87%
- Serum Androstenedione Mean [3]: 39 pg/mL
- Serum Corticosterone CFB (vs Day −1) [3]: 3468%
- Serum Corticosterone Mean [3]: 113629 pg/mL
- Serum Cortisol CFB (vs Day −1) [3]: −83%
- Serum Cortisol Mean [3]: 19682 pg/mL
- Serum Dehydroepiandrosterone CFB (vs Day −1) [3]: −64%
- Serum Dehydroepiandrosterone Mean [3]: 1200 pg/mL
- Serum Deoxycortisol CFB (vs Day −1) [3]: −49%
- Serum Deoxycortisol Mean [3]: 141 pg/mL
- Serum Dihydrotestosterone CFB (vs Day −1) [3]: −90%
- Serum Dihydrotestosterone Mean [3]: 165 pg/mL
- Serum Progesterone CFB (vs Day −1) [3]: 75799%
- Serum Progesterone Mean [3]: 15180 pg/mL
- Serum Testosterone CFB (vs Day −1) [3]: −87%
- Serum Testosterone Mean [3]: 1246 pg/mL
- Serum Testosterone CFB (vs Day −1) (200 mg/kg IM every two weeks, Day 85, listed as AbiDec): −87%
- serum testosterone levels reduced (200 mg/kg/dose, for at least 85 days): more than 75%
- Androstenedione serum concentration below Day −1 [4]: 53-77%
- dihydrotestosterone serum concentration below Day −1 [4]: 61-69%
- circulating androgen levels (gonadally intact male monkeys, appeared dose dependent, sustained for testosterone through Day 85 at 200 mg/kg/dose): potent reductions in circulating androgen levels
- Serum testosterone concentrations following repeat administration (two lower dose groups (20, 60 mg/kg) by Day 85): returned to baseline
